Data from patent US11312804B2, “Polymerizable compound, polymerizable composition, polymer, and photoresist composition” (JNC CORPORATION, priority 2018, dated 2022).

Assay: Water solubility test: extraction from water into ethyl acetate, weight of residue
Assay type: physicochemical
Conditions: for weight of the residue: 0.500 g dissolved in 10 mL water at room temperature, 10 mL ethyl acetate added, stirred 10 min, organic layer dried and concentrated
Description: In 10 mL of water, 0.500 g of the compound represented by formula (14a-x) was dissolved at room temperature, and 10 mL of ethyl acetate was added thereto, and the resulting mixture was stirred for 10 min, and then the organic layer was dried over anhydrous sodium sulfate. The desiccant was filtered off, and then the filtrate was concentrated under reduced pressure. The weight of the residue was 0.101 g.
In 10 mL of water, 0.500 g of a compound represented by formula (15), namely, mevalonolactone was dissolved at room temperature, and 10 mL of ethyl acetate was added thereto, and the resulting mixture was stirred for 10 min, and then the organic layer was dried over anhydrous sodium sulfate. The desiccant was filtered off, and then the filtrate was concentrated under reduced pressure. Then weight of the residue was 0.080 g.

Structure (SMILES) | weight of the residue [g] | water solubility compared with the compound used in Comparative Example 1 (conclusion from ethyl acetate extraction test)
CC1(O)CCOC(=O)C1 (stereo not drawn) [Compound 15, mevalonolactone, reference compound] | 0.080 | 
C[C@H]1C(=O)OCC[C@@]1(C)O [Compound 14a-x, α-methyl-mevalonolactone] | 0.101 | lower water solubility
